Data published in patent publication US12540131B2 (Merck Sharp & Dohme LLC, priority 2019, dated 2026).

These compounds were tested against GST tagged truncated human mutant G2019S LRRK2 (Homo sapiens (Human), UniProt Q5S007, G2019S) (assay: LRRK2 Km ATP LanthaScreen Assay). Details: G2019S LRRK2, 134 μM ATP (Km ATP), mean values.
Format: biochemical
Method in brief: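 Enzyme (GST-tagged, truncated) was preincubated with compound for 15 min at RT in 50 mM Tris pH 8.5, 10 mM MgCl2, 0.01% Brij-35, 1 mM EGTA, 2 mM DTT and 0.05 mM orthovanadate. Fluorescein-LRRKtide and 134 μM ATP (Km) were then added for 90 min. EDTA and Tb-anti-pERM antibody stopped the reaction; the TR-FRET 520/495 ratio gave 4-parameter IC50s, reported as mean pIC50.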

Sequence of GST tagged truncated human mutant G2019S LRRK2 (Q5S007 970-2527 G2019S): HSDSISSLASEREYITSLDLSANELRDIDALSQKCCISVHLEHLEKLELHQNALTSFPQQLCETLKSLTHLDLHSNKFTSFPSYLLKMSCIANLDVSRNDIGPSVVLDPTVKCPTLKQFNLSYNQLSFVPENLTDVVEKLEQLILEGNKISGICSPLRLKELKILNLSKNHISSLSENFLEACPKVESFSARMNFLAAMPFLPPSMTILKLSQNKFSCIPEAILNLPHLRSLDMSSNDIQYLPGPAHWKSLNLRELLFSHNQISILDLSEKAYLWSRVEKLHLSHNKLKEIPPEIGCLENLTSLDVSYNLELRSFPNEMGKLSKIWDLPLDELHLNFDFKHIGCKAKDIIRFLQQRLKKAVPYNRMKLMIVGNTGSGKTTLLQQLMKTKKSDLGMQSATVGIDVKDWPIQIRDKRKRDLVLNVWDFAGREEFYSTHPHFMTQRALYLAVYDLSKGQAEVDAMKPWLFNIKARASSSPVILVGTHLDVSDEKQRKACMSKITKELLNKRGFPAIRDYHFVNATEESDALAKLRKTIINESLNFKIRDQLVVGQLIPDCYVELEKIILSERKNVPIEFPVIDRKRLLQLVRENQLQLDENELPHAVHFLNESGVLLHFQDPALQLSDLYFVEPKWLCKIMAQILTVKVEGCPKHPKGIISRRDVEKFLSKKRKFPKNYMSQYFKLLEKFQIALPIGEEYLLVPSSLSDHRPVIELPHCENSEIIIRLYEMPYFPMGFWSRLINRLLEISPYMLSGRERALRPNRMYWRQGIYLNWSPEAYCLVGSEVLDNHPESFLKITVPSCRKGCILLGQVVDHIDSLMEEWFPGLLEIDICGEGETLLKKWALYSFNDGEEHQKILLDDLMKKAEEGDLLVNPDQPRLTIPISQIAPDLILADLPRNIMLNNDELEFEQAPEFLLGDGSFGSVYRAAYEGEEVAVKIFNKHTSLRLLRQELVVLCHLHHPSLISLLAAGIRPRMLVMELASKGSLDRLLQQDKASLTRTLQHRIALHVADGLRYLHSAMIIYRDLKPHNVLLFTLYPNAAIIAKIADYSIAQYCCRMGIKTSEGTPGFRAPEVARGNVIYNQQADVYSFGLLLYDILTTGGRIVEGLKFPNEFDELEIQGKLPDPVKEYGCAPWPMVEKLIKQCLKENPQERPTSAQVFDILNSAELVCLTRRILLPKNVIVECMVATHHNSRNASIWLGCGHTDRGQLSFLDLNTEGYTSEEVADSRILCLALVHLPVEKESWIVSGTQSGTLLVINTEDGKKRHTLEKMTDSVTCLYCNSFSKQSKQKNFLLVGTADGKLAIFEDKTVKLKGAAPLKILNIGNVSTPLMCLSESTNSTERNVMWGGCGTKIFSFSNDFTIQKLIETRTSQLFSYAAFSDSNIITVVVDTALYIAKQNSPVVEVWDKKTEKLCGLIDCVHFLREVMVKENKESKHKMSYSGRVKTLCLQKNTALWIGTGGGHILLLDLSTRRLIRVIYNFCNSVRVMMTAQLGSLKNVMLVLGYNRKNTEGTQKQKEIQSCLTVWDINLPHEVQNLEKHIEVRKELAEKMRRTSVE

**Q.** `Cc1c(Nc2ncc3cc(Cl)c([C@@H]4CCN([C@H]5COC[C@H]5O)C[C@H]4F)cc3n2)cnn1C12CC(C1)C2` (single isomer, unassigned) [Ex-4.162, (3S,4S)(3S,4S) or (3S,4S)(3R,4R) or (3R,4R)(3S,4S) or (3R,4R)(3R,4R) 4-[4-(2-{[1-(bicyclo[1.1.1]pentan-1-yl)-5-methyl-1H-pyrazol-4-yl]amino}-6-chloroquinazolin-7-yl)-3-fluoropiperidin-1-yl]oxolan-3-ol] was tested. Which “LRRK2 pIC50” value did it give?
**A.** >9.20

**Q.** `Cc1cc2cnc(Nc3cnn(C45CC(C4)C5)c3C)nc2cc1[C@@H]1CCN([C@H]2COC[C@H]2O)C[C@H]1F` (single isomer, unassigned) [Ex-4.164, (3S,4S)(3S,4S) or (3S,4S)(3R,4R) or (3R,4R)(3S,4S) or (3R,4R)(3R,4R) 4-[4-(2-{[1-(bicyclo[1.1.1]pentan-1-yl)-5-methyl-1H-pyrazol-4-yl]amino}-6-methylquinazolin-7-yl)-3-fluoropiperidin-1-yl]oxolan-3-ol] was tested. Which “LRRK2 pIC50” value did it give?
**A.** >9.20

**Q.** For `Cc1cc2cnc(Nc3cnn(C45CC(C4)C5)c3C)nc2cc1[C@@H]1CCN([C@@H]2COC[C@@H]2O)C[C@H]1F` (single isomer, unassigned) [Ex-4.165, (3S,4S)(3S,4S) or (3S,4S)(3R,4R) or (3R,4R)(3S,4S) or (3R,4R)(3R,4R) 4-[4-(2-{[1-(bicyclo[1.1.1]pentan-1-yl)-5-methyl-1H-pyrazol-4-yl]amino}-6-methylquinazolin-7-yl)-3-fluoropiperidin-1-yl]oxolan-3-ol], which “LRRK2 pIC50” value is on record?
**A.** 8.67

**Q.** With `Clc1cc2cnc(Nc3cnn(C4CC4)c3Cl)nc2cc1C1CCN(C2COC(C3CC3)C2)CC1` (single isomer, unassigned) [Ex-4.166, (3R,5R) or (3S,5R) or (3R,5S) or (3S,5S) 6-chloro-N-(5-chloro-1-cyclopropyl-1H-pyrazol-4-yl)-7-[1-(5-cyclopropyloxolan-3-yl)piperidin-4-yl]quinazolin-2-amine] as the compound, how does the “LRRK2 pIC50” value read?
**A.** 9.17

**Q.** `Clc1cc2cnc(Nc3cnn(C4CC4)c3Cl)nc2cc1C1CCN(C2COC(C3CC3)C2)CC1` (single isomer, unassigned) [Ex-4.167, (3R,5R) or (3S,5R) or (3R,5S) or (3S,5S) 6-chloro-N-(5-chloro-1-cyclopropyl-1H-pyrazol-4-yl)-7-[1-(5-cyclopropyloxolan-3-yl)piperidin-4-yl]quinazolin-2-amine] was tested. Which “LRRK2 pIC50” value did it give?
**A.** 8.14

**Q.** How did the “LRRK2 pIC50” value turn out when `Cc1c(Nc2ncc3cc(Cl)c(C4CCN(C5CCC(CC#N)C5)CC4)cc3n2)cnn1C1CC1` (single isomer, unassigned) [Ex-4.168, (1R,3R) or (1S,3R) or (1R,3S) or (1S,3S) [3-(4-{6-chloro-2-[(1-cyclopropyl-5-methyl-1H-pyrazol-4-yl)amino]quinazolin-7-yl}piperidin-1-yl)cyclopentyl]acetonitrile] was run?
**A.** 8.88

**Q.** How did the “LRRK2 pIC50” value turn out when `Cc1c(Nc2ncc3cc(Cl)c(C4CCN(C5CCC(CC#N)C5)CC4)cc3n2)cnn1C1CC1` (single isomer, unassigned) [Ex-4.169, (1R,3R) or (1S,3R) or (1R,3S) or (1S,3S) [3-(4-{6-chloro-2-[(1-cyclopropyl-5-methyl-1H-pyrazol-4-yl)amino]quinazolin-7-yl}piperidin-1-yl)cyclopentyl]acetonitrile] was run?
**A.** 8.25

**Q.** Which “LRRK2 pIC50” value does the source give for `Cc1c(Nc2ncc3cc(Cl)c(C4CCN(C5CCC(CC#N)C5)CC4)cc3n2)cnn1C1CC1` (single isomer, unassigned) [Ex-4.170, (1R,3R) or (1S,3R) or (1R,3S) or (1S,3S) [3-(4-{6-chloro-2-[(1-cyclopropyl-5-methyl-1H-pyrazol-4-yl)amino]quinazolin-7-yl}piperidin-1-yl)cyclopentyl]acetonitrile] here?
**A.** 8.81

**Q.** With `Cc1c(Nc2ncc3cc(Cl)c(C4CCN(C5CCC(CC#N)C5)CC4)cc3n2)cnn1C1CC1` (single isomer, unassigned) [Ex-4.171, (1R,3R) or (1S,3R) or (1R,3S) or (1S,3S) [3-(4-{6-chloro-2-[(1-cyclopropyl-5-methyl-1H-pyrazol-4-yl)amino]quinazolin-7-yl}piperidin-1-yl)cyclopentyl]acetonitrile] as the compound, how does the “LRRK2 pIC50” value read?
**A.** 8.51

**Q.** How did the “LRRK2 pIC50” value turn out when `Cc1c(Nc2ncc3cc(Cl)c([C@H]4CCN(C5COC5)C[C@@H]4F)cc3n2)cnn1C1CC1(F)F` (single isomer, unassigned) [Ex-4.175, (R)(3S,4S) or (S)(3S,4S) or (R)(3R,4R) or (S)(3R,4R) 6-chloro-N-[1-(2,2-difluorocyclopropyl)-5-methyl-1H-pyrazol-4-yl]-7-[(3R,4R)-3-fluoro-1-(oxetan-3-yl)piperidin-4-yl]quinazolin-2-amine] was run?
**A.** 9.10

**Q.** Which “LRRK2 pIC50” value does the source give for `Cc1c(Nc2ncc3cc(Cl)c([C@H]4CCN(C5COC5)C[C@@H]4F)cc3n2)cnn1C1CC1(F)F` (single isomer, unassigned) [Ex-4.176, (R)(3S,4S) or (S)(3S,4S) or (R)(3R,4R) or (S)(3R,4R) 6-chloro-N-[1-(2,2-difluorocyclopropyl)-5-methyl-1H-pyrazol-4-yl]-7-[(3R,4R)-3-fluoro-1-(oxetan-3-yl)piperidin-4-yl]quinazolin-2-amine] here?
**A.** 8.73

**Q.** How did the “LRRK2 pIC50” value turn out when `Cc1c(Nc2ncc3cc(Cl)c([C@@H]4CCN(C5COC5)C[C@H]4F)cc3n2)cnn1C1CC1(F)F` (single isomer, unassigned) [Ex-4.177, (R)(3S,4S) or (S)(3S,4S) or (R)(3R,4R) or (S)(3R,4R) 6-chloro-N-[1-(2,2-difluorocyclopropyl)-5-methyl-1H-pyrazol-4-yl]-7-[(3R,4R)-3-fluoro-1-(oxetan-3-yl)piperidin-4-yl]quinazolin-2-amine] was run?
**A.** 9.16

**Q.** Which “LRRK2 pIC50” value does the source give for `Cc1c(Nc2ncc3cc(Cl)c([C@@H]4CCN(C5COC5)C[C@H]4F)cc3n2)cnn1C1CC1(F)F` (single isomer, unassigned) [Ex-4.178, (R)(3S,4S) or (S)(3S,4S) or (R)(3R,4R) or (S)(3R,4R) 6-chloro-N-[1-(2,2-difluorocyclopropyl)-5-methyl-1H-pyrazol-4-yl]-7-[(3R,4R)-3-fluoro-1-(oxetan-3-yl)piperidin-4-yl]quinazolin-2-amine] here?
**A.** 8.58

Same assay, conditions: G2019S LRRK2, 134 μM ATP (Km ATP), mean values; read-out: LRRK2 pIC50 (converted)

**Q.** `Cc1c(Nc2ncc3cc(Cl)c(C4CCN(C5COC(C)(C)C5)CC4)cc3n2)cnn1C1CC1` (single isomer, unassigned) [Ex-4.173, (R) or (S) 6-chloro-N-(1-cyclopropyl-5-methyl-1H-pyrazol-4-yl)-7-[1-(5,5-dimethyloxolan-3-yl)piperidin-4-yl]quinazolin-2-amine] was tested. Which IC50 did it give?
**A.** 3.72 nM

**Q.** How did the IC50 turn out when `Cc1c(Nc2ncc3cc(Cl)c(C4CCN(C5COC(C)(C)C5)CC4)cc3n2)cnn1C1CC1` (single isomer, unassigned) [Ex-4.174, (R) or (S) 6-chloro-N-(1-cyclopropyl-5-methyl-1H-pyrazol-4-yl)-7-[1-(5,5-dimethyloxolan-3-yl)piperidin-4-yl]quinazolin-2-amine] was run?
**A.** < 0.631 nM

**Q.** How did the IC50 turn out when `Cc1c(Nc2ncc3cc(Cl)c(C4CCN(C5COC5)CC4)cc3n2)cnn1C1CC1(F)F` (single isomer, unassigned) [Ex-4.179, (R) or (S) 6-chloro-N-[1-(2,2-difluorocyclopropyl)-5-methyl-1H-pyrazol-4-yl]-7-[1-(oxetan-3-yl)piperidin-4-yl]quinazolin-2-amine] was run?
**A.** < 0.631 nM
